Results from patent US20050250752A1, “Cembranoids with chemopreventive activity” (priority 2002, published 2005).

Tests used:
[1] = system: Epstein-Barr virus early antigen (EBV-EA) of Raji cells induced by tumor promoter (TPA); test: Inhibition of EBV-EA activation induced by TPA in Raji cells; format: cell-based; settings: for EBV-EA induction, percentage relative to the positive control value (100%): TPA 32 pmol, Raji cells, 48 h
Procedure: (§1) The inhibition of EBV-EA activation was assayed using Raji cells (virus non-producer type). The indicator cells (Raji, 1×10^6/ml) were incubated at 37° C. for 48 h in 1 ml of medium containing n-butyric acid (4 mmol), TPA(12-O-tetradecanoylphorbol 13-acetate)(32 pmol=20 ng in 2 μl DMSO) as inducer and various amounts of test compounds in 5 μl DMSO. Smears were made from the cell suspension, and the activated cells, which were stained by EBV-EA positive serum from nasopharygeal carcinoma patients were detected by an indirect immunofluorescence technique. For each compound, assays were performed in triplicate. The average EBV-EA induction of the test compounds was expressed as a relative ratio to the control experiment (100%), which was carried out only with n-butyric acid plus TPA. The viability of treated Raji cells was assayed by the Trypan Blue staining method.

Raji cells = test: Viability of treated Raji cells (Trypan Blue staining); format: cell-based
Procedure: as §1

[2] = system: papillomas (mouse skin carcinogenesis induced by DMBA/TPA); test: Two-stage mouse skin carcinogenesis model induced by DMBA/TPA; format: in vivo, mouse (female ICR); settings: topical 85 nm 1 hour before TPA, ICR mice
Procedure: In the two-stage mouse skin carcinogenesis model induced by DMBA/TPA, the animals (specific pathogen-free female ICR, 6 weeks old) were divided into 5 groups, 15 mice each. The back of each mouse was shaved with surgical clippers, and the mice were topically treated with DMBA (100 μg, 390 nmol) in acetone (0.1 ml) as an initiation treatment. For the positive control group, 1 week after initiation with DMBA, mice were promoted by the application with TPA (1 μg, 1.7 nmol) in acetone (0.1 ml) twice a week. The other four groups received a topical application of each of the sarcophine semi-synthetic derivatives (85 nm) 1 hour before application of the tumor promoter. The incidence of papillomas was observed weekly for 20 weeks. The percentage of mice bearing papillomas and the average number of papillomas per mouse were recorded.

[3] = x 1000 mol ratio/TPA (32 nmol/mL)

## 13S-hydroxysarcophine [Compound 4]
[1]; x 10 mol ratio/TPA
  EBV-EA induction, percentage relative to the positive control value (100%): 100%
[1]; x 100 mol ratio/TPA
  EBV-EA induction, percentage relative to the positive control value (100%): 81.3%
[1]; x 500 mol ratio/TPA
  EBV-EA induction, percentage relative to the positive control value (100%): 62.8%
[1]; [3]
  EBV-EA induction, percentage relative to the positive control value (100%): 14.2%
Raji cells; x 10 mol ratio/TPA
  viability percentage of Raji cells (indicator cells): > 80%
Raji cells; x 100 mol ratio/TPA
  viability percentage of Raji cells (indicator cells): > 80%
Raji cells; x 500 mol ratio/TPA
  viability percentage of Raji cells (indicator cells): > 80%
Raji cells; [3]
  viability percentage of Raji cells (indicator cells): 60%

## CC1=C2CC/C(C)=C/CC[C@]3(C)O[C@H]3CC/C(C)=C/[C@@H]2OC1=O [Compound 3, Sarcophine, reference compound]
[1]; x 10 mol ratio/TPA
  EBV-EA induction, percentage relative to the positive control value (100%): 100%
[1]; x 100 mol ratio/TPA
  EBV-EA induction, percentage relative to the positive control value (100%): 84.0%
[1]; x 500 mol ratio/TPA
  EBV-EA induction, percentage relative to the positive control value (100%): 67.5%
[1]; [3]
  EBV-EA induction, percentage relative to the positive control value (100%): 19.6%
Raji cells; human, 48 h, 0.32 nmol/mL
  viability percentage of Raji cells (indicator cells): > 80%
Raji cells; human, 48 h, 3.2 nmol/mL
  viability percentage of Raji cells (indicator cells): > 80%
Raji cells; x 500 mol ratio/TPA
  viability percentage of Raji cells (indicator cells): > 80%
Raji cells; [3]
  viability percentage of Raji cells (indicator cells): 60%

## CC1=C2CC/C(C=O)=C/CC[C@]3(C)O[C@H]3CC/C(C)=C/[C@@H]2OC1=O [Compound 6, sarcophine-20-carboxyaldehyde]
[1]; x 10 mol ratio/TPA
  EBV-EA induction, percentage relative to the positive control value (100%): 96.0%
[1]; x 100 mol ratio/TPA
  EBV-EA induction, percentage relative to the positive control value (100%): 78.2%
[1]; x 500 mol ratio/TPA
  EBV-EA induction, percentage relative to the positive control value (100%): 60.8%
[1]; [3]
  EBV-EA induction, percentage relative to the positive control value (100%): 12.7%
Raji cells; x 10 mol ratio/TPA
  viability percentage of Raji cells (indicator cells): > 80%
Raji cells; x 100 mol ratio/TPA
  viability percentage of Raji cells (indicator cells): > 80%
Raji cells; x 500 mol ratio/TPA
  viability percentage of Raji cells (indicator cells): > 80%
Raji cells; [3]
  viability percentage of Raji cells (indicator cells): 60%

## C/C(CO)=C1\CC/C(C)=C/CCC2(C)OC2CC/C(C)=C/C1O (stereo not shown) [Compound 10]
[1]; x 10 mol ratio/TPA
  EBV-EA induction, percentage relative to the positive control value (100%): 94.1%
[1]; x 100 mol ratio/TPA
  EBV-EA induction, percentage relative to the positive control value (100%): 75.5%
[1]; x 500 mol ratio/TPA
  EBV-EA induction, percentage relative to the positive control value (100%): 57.3%
[1]; [3]
  EBV-EA induction, percentage relative to the positive control value (100%): 9.6%
Raji cells; x 10 mol ratio/TPA
  viability percentage of Raji cells (indicator cells): > 80%
Raji cells; x 100 mol ratio/TPA
  viability percentage of Raji cells (indicator cells): > 80%
Raji cells; x 500 mol ratio/TPA
  viability percentage of Raji cells (indicator cells): > 80%
Raji cells; [3]
  viability percentage of Raji cells (indicator cells): 60%
[2]; week 1 of promotion
  Papilloma Bearer (%): 0.0%
  Papillomas/mouse: 0.0
[2]; week 2 of promotion
  Papilloma Bearer (%): 0.0%
  Papillomas/mouse: 0.0
[2]; week 3 of promotion
  Papilloma Bearer (%): 0.0%
  Papillomas/mouse: 0.0
[2]; week 4 of promotion
  Papilloma Bearer (%): 0.0%
  Papillomas/mouse: 0.0
[2]; week 5 of promotion
  Papilloma Bearer (%): 0.0%
  Papillomas/mouse: 0.0
[2]; week 6 of promotion
  Papilloma Bearer (%): 0.0%
  Papillomas/mouse: 0.0
[2]; week 7 of promotion
  Papilloma Bearer (%): 0.0%
  Papillomas/mouse: 0.0
[2]; week 8 of promotion
  Papilloma Bearer (%): 13.3%
  Papillomas/mouse: 0.5
[2]; week 9 of promotion
  Papilloma Bearer (%): 13.3%
  Papillomas/mouse: 0.9
[2]; week 10 of promotion
  Papilloma Bearer (%): 26.6%
  Papillomas/mouse: 1.3
[2]; week 11 of promotion
  Papilloma Bearer (%): 33.3%
  Papillomas/mouse: 1.8
[2]; week 12 of promotion
  Papilloma Bearer (%): 40.0%
  Papillomas/mouse: 2.1
[2]; week 13 of promotion
  Papilloma Bearer (%): 46.6%
  Papillomas/mouse: 2.3
[2]; week 14 of promotion
  Papilloma Bearer (%): 53.3%
  Papillomas/mouse: 2.5
[2]; week 15 of promotion
  Papilloma Bearer (%): 60.0%
  Papillomas/mouse: 2.7
[2]; week 16 of promotion
  Papilloma Bearer (%): 73.3%
  Papillomas/mouse: 3.1
[2]; week 17 of promotion
  Papilloma Bearer (%): 73.3%
  Papillomas/mouse: 3.6
[2]; week 18 of promotion
  Papilloma Bearer (%): 80.0%
  Papillomas/mouse: 4.0
[2]; week 19 of promotion
  Papilloma Bearer (%): 80.0%
  Papillomas/mouse: 4.6
[2]; week 20 of promotion
  Papilloma Bearer (%): 80.0%
  Papillomas/mouse: 4.8

## C/C1=C\CCC2(C)OC2CC/C(C)=C/C=C(/[C@@](C)(O)CO)CC1 (stereo partly drawn) [Compound 11, 7,8-Epoxy-1,3,11-cembratriene-15R(α),16-diol]
[2]; week 1 of promotion
  Papilloma Bearer (%): 0.0%
  Papillomas/mouse: 0.0
[2]; week 2 of promotion
  Papilloma Bearer (%): 0.0%
  Papillomas/mouse: 0.0
[2]; week 3 of promotion
  Papilloma Bearer (%): 0.0%
  Papillomas/mouse: 0.0
[2]; week 4 of promotion
  Papilloma Bearer (%): 0.0%
  Papillomas/mouse: 0.0
[2]; week 5 of promotion
  Papilloma Bearer (%): 0.0%
  Papillomas/mouse: 0.0
[2]; week 6 of promotion
  Papilloma Bearer (%): 0.0%
  Papillomas/mouse: 0.0
[2]; week 7 of promotion
  Papilloma Bearer (%): 0.0%
  Papillomas/mouse: 0.0
[2]; week 8 of promotion
  Papilloma Bearer (%): 13.3%
  Papillomas/mouse: 0.6
[2]; week 9 of promotion
  Papilloma Bearer (%): 20.0%
  Papillomas/mouse: 1.3
[2]; week 10 of promotion
  Papilloma Bearer (%): 26.6%
  Papillomas/mouse: 1.6
[2]; week 11 of promotion
  Papilloma Bearer (%): 40.0%
  Papillomas/mouse: 1.9
[2]; week 12 of promotion
  Papilloma Bearer (%): 46.6%
  Papillomas/mouse: 2.1
[2]; week 13 of promotion
  Papilloma Bearer (%): 53.3%
  Papillomas/mouse: 2.4
[2]; week 14 of promotion
  Papilloma Bearer (%): 53.3%
  Papillomas/mouse: 2.7
[2]; week 15 of promotion
  Papilloma Bearer (%): 60.0%
  Papillomas/mouse: 3.0
[2]; week 16 of promotion
  Papilloma Bearer (%): 73.3%
  Papillomas/mouse: 3.4
[2]; week 17 of promotion
  Papilloma Bearer (%): 80.0%
  Papillomas/mouse: 3.7
[2]; week 18 of promotion
  Papilloma Bearer (%): 80.0%
  Papillomas/mouse: 4.2
[2]; week 19 of promotion
  Papilloma Bearer (%): 86.6%
  Papillomas/mouse: 4.7
[2]; week 20 of promotion
  Papilloma Bearer (%): 86.6%
  Papillomas/mouse: 5.1

## CC1=CC=C([C@@](C)(O)CO)C[C@@H](O)C(C)=CCCC2(C)OC2CC1 (stereo partly drawn) [Compound 13, 7,8-Epoxy-1,3,11-cembratriene-13R(α),15R(α),16-triol]
[1]; x 10 mol ratio/TPA
  EBV-EA induction, percentage relative to the positive control value (100%): 92.6%
[1]; x 100 mol ratio/TPA
  EBV-EA induction, percentage relative to the positive control value (100%): 72.9%
[1]; x 500 mol ratio/TPA
  EBV-EA induction, percentage relative to the positive control value (100%): 54.2%
[1]; [3]
  EBV-EA induction, percentage relative to the positive control value (100%): 5.7%
Raji cells; x 10 mol ratio/TPA
  viability percentage of Raji cells (indicator cells): > 80%
Raji cells; x 100 mol ratio/TPA
  viability percentage of Raji cells (indicator cells): > 80%
Raji cells; x 500 mol ratio/TPA
  viability percentage of Raji cells (indicator cells): > 80%
Raji cells; [3]
  viability percentage of Raji cells (indicator cells): 60%

## C/C1=C\C=C(\C(C)(O)CO)CC(=O)/C(C)=C/CCC2(C)OC2CC1 (stereo not drawn) [Compound 14, 7,8-Epoxy-13-oxo-1,3,11-cembratriene-15R(α),16-diol]
[1]; x 10 mol ratio/TPA
  EBV-EA induction, percentage relative to the positive control value (100%): 94.0%
[1]; x 100 mol ratio/TPA
  EBV-EA induction, percentage relative to the positive control value (100%): 75.1%
[1]; x 500 mol ratio/TPA
  EBV-EA induction, percentage relative to the positive control value (100%): 56.7%
[1]; [3]
  EBV-EA induction, percentage relative to the positive control value (100%): 8.3%
Raji cells; x 10 mol ratio/TPA
  viability percentage of Raji cells (indicator cells): > 80%
Raji cells; x 100 mol ratio/TPA
  viability percentage of Raji cells (indicator cells): > 80%
Raji cells; x 500 mol ratio/TPA
  viability percentage of Raji cells (indicator cells): > 80%
Raji cells; [3]
  viability percentage of Raji cells (indicator cells): 60%

## C/C1=C\C=C(\C(C)(O)CO)CC/C(C=O)=C/CCC2(C)OC2CC1 (stereo not drawn) [Compound 15, 7,8-Epoxy-1,3,11-cembratriene-15R(α),16-diol-20-carboxyaldehyde]
[1]; x 10 mol ratio/TPA
  EBV-EA induction, percentage relative to the positive control value (100%): 90.6%
[1]; x 100 mol ratio/TPA
  EBV-EA induction, percentage relative to the positive control value (100%): 71.3%
[1]; x 500 mol ratio/TPA
  EBV-EA induction, percentage relative to the positive control value (100%): 52.4%
[1]; [3]
  EBV-EA induction, percentage relative to the positive control value (100%): 3.6%
Raji cells; x 10 mol ratio/TPA
  viability percentage of Raji cells (indicator cells): > 80%
Raji cells; x 100 mol ratio/TPA
  viability percentage of Raji cells (indicator cells): > 80%
Raji cells; x 500 mol ratio/TPA
  viability percentage of Raji cells (indicator cells): > 80%
Raji cells; [3]
  viability percentage of Raji cells (indicator cells): 60%

## C/C1=C\C=C(\C(C)C)[C@@H](O)C/C(C)=C/CC/C(C)=C/CC1 [Sarcophytol-A, sarcophytol A, reference compound]
[1]
  inhibition of EBV-EA activation induced by TPA: 88%
[1]; x 10 mol ratio/TPA
  EBV-EA induction, percentage relative to the positive control value (100%): 97.3%
[1]; x 100 mol ratio/TPA
  EBV-EA induction, percentage relative to the positive control value (100%): 79.1%
[1]; x 500 mol ratio/TPA
  EBV-EA induction, percentage relative to the positive control value (100%): 60.4%
[1]; [3]
  EBV-EA induction, percentage relative to the positive control value (100%): 11.7%
Raji cells; x 10 mol ratio/TPA
  viability percentage of Raji cells (indicator cells): > 80%
Raji cells; x 100 mol ratio/TPA
  viability percentage of Raji cells (indicator cells): > 80%
Raji cells; x 500 mol ratio/TPA
  viability percentage of Raji cells (indicator cells): > 80%
Raji cells; [3]
  viability percentage of Raji cells (indicator cells): 50%
